# Tests used:
# HepAD38 cells = test: Cell viability assay (AlamarBlue); settings: 0.3 μg/ml tetracycline, six days incubation, AlamarBlue
# Method: Using the AlamarBlue viability assay cytotoxicity was evaluated in HepAD38 cells in the presence of 0.3 μg/ml tetracycline, which blocks the expression of the HBV genome. Assay condition and plate layout were in analogy to the anti-HBV assay, however other controls were used. On each assay plate six wells containing untreated HepAD38 cells were used as the 100% viability control, and six wells filled with assay medium only were used as 0% viability control. In addition, a geometric concentration series of cycloheximide starting at 60 μM final assay concentration was used as positive control in each experiment. After six days incubation period Alamar Blue Presto cell viability reagent (ThermoFisher, Dreieich) was added in 1/11 dilution to each well of the assay plate. After an incubation for 30 to 45 min at 37° C. the fluorescence signal, which is proportional to the number of living cells, was read using a Tecan Spectrafluor Plus plate reader with an excitation filter 550 nm and emission filter 595 nm, respectively. Data were normalized into percentages of the untreated control (100% viability) and assay medium (0% viability) before CC50 values were calculated using non-linear regression and the GraphPad Prism 6.0 (GraphPad Software, La Jolla, USA). Mean EC50 and CC50 values were used to calculate the selectivity index (SI=CC50/EC50) for each test compound.
# HBV = test: Determination of HBV DNA from the supernatants of HepAD38 cells (anti-HBV activity); format: cell-based, hepatitis B virus; settings: HBV DNA in HepAD38 supernatant, day 6, qPCR; read-out: Cell Activity
# In short: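 EC50 derived by non-linear regression of relative HBV DNA copy numbers, measured by qPCR (plasmid standards) in day-6 filtered supernatants. Before this, HepAD38 cells were exposed to serial half-log compound dilutions without tetracycline, releasing viral expression; cultures kept at 37 °C, 5% CO2.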
# [1] = target: HBV core protein (C-terminal truncated core protein containing 149 amino acids of the N-terminal assembly domain) (UniProt P03146); test: Biochemical capsid assembly assay (fluorescence quenching); set-up: rows headed: Assembly Activity; other: BODIPY-FL labelled core protein, assembly started with NaCl, read after 6 min; settings: read-out: Assembly Activity; BODIPY-FL labelled core protein, assembly started with NaCl, read after 6 min
# Sequence of HBV core protein (C-terminal truncated core protein containing 149 amino acids of the N-terminal assembly domain) (P03146 whole entry, the tested form may be a part): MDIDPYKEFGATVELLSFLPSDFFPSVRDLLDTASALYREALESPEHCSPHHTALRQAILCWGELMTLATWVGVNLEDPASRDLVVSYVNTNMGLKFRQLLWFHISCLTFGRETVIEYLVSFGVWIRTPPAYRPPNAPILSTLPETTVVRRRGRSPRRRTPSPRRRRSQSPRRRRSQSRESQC
# In short: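 N-terminal assembly domain (residues 1–149) plus C-terminal Cys150, E. coli-expressed, BODIPY-FL-maleimide labelled, used at 1.0–2.0 μM in 50 mM HEPES pH 7.5 with 0.5% DMSO. Assembly started with NaCl ([…]); fluorescence quenching (ex 477/em 525 nm) read after 6 min. 8-point compound series; EC50 by non-linear regression.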
Structure (SMILES),CC50 (HepAD38 cells),EC50 (HBV),IC50 [1]
"COCC1(N(C)C(=O)c2cnn3c2CN(C(=O)c2cc4ccccc4[nH]2)C(C)C3)CC1 (single isomer, unassigned) [Example 70, 5-(1H-indole-2-carbonyl)-N-[1-(methoxymethyl)cyclopropyl]-N,6-dimethyl-4H,5H,6H,7H-pyrazolo[1,5-a]pyrazine-3-carboxamide]",> 10 µM,< 1 µM,< 5 µM
"CC1Cn2ncc(C(=O)N(C)C3CC3)c2CN1C(=O)c1cc2ccccc2[nH]1 (single isomer, unassigned) [Example 71, N-cyclopropyl-5-(1H-indole-2-carbonyl)-N,6-dimethyl-4H,5H,6H,7H-pyrazolo[1,5-a]pyrazine-3-carboxamide]",> 10 µM,< 1 µM,< 5 µM

# — patent US20220363686A1 (AiCuris GmbH & Co. KG, priority 2018, published 2022)
